The subject of one data set is Alternaria solani. The experiment in a line: Alternaria test (tomato)/protective. The settings on record: protective, application rate 500 ppm, evaluation 7 days after inoculation. It is filed as in vivo. The method, then:
[table] To produce a suitable preparation of active compound, 1 part by weight of active compound is mixed with the stated amounts of solvent and emulsifier, and the concentrate is diluted with water to the desired concentration. […] 1 day after the treatment, the plants are inoculated with a spore suspension of Alternaria solani and then remain at 100% relative humidity and 20° C. for 24 h. The plants then remain at 96% relative atmospheric humidity and a temperature of 20° C. Evaluation is carried out 7 days after the inoculation. 0% means an efficacy which corresponds to that of the control, whereas an efficacy of 100% means that no infection is observed.

The next data set relates to Puccinia recondita. The data set can be described thus: Puccinia test (wheat)/protective. The conditions noted are these: protective, application rate 1000 ppm, evaluation 10 days after inoculation. It is filed as in vivo. The protocol: (§1) [table] To produce a suitable preparation of active compound, 1 part by weight of active compound is mixed with the stated amounts of solvent and emulsifier, and the concentrate is diluted with water to the desired concentration. To test for protective activity, young plants are sprayed with the active compound preparation at the stated application rate. After the spray coating has dried on, the plants are sprayed with a conidia suspension of Puccinia recondita. The plants remain in an incubation cabin at 20° C. and 100% relative atmospheric humidity for 48 hours. The plants are then placed in a greenhouse at a temperature of about 20° C. and a relative atmospheric humidity of 80% to promote the development of rust pustules. Evaluation is carried out 10 days after the inoculation. 0% means an efficacy which corresponds to that of the control, whereas an efficacy of 100% means that no infection is observed.

A further data set has as its system Botrytis cinerea. The experiment in a line: Botrytis test (cucumber)/protective. It is filed as in vivo. The settings on record: protective, application rate 500 ppm, evaluation 5-6 days after inoculation. The method, then: [table] To produce a suitable preparation of active compound, 1 part by weight of active compound is mixed with the stated amounts of solvent and emulsifier, and the concentrate is diluted with water to the desired concentration. To test for protective activity, young cucumber plants are sprayed with the active compound preparation at the stated application rate. 1 day after the treatment, the plants are inoculated with a spore suspension of Botrytis cinerea and then remain at 100% relative humidity and 20° C. for 48 h. The plants then remain at 96% relative atmospheric humidity and a temperature of 13° C. Evaluation is carried out 5-6 days after the inoculation. 0% means an efficacy which corresponds to that of the control, whereas an efficacy of 100% means that no infection is observed.

Data set [1] in a line: log P determination by HPLC on reversed-phase column (EEC Directive 79/831 Annex V.A8). The settings on record: reversed-phase HPLC column (C 18); pH 2.3; HPLC reversed-phase C 18, 43° C.; 0.1% aqueous phosphoric acid/acetonitrile. The class given is physicochemical. The method, then: The log P values given in the Tables and Preparation Examples above are determined in accordance with EEC Directive 79/831 Annex V.A8 by HPLC (High Performance Liquid Chromatography) on reversed-phase column (C 18). Temperature: 43° C. The determination is carried out in the acidic range at pH 2.3 using the mobile phases 0.1% aqueous phosphoric acid and acetonitrile; linear gradient from 10% acetonitrile to 90% acetonitrile. Calibration is carried out using unbranched alkan-2-ones (having 3 to 16 carbon atoms) with known log P values (determination of the log P values by the retention times using linear interpolation between two successive alkanones).

The next data set has as its system Pyrenophora teres. The experiment in a line: Pyrenophora teres test (barley)/protective. The class given is in vivo. The conditions noted are these: protective, application rate 1000 ppm, evaluation 8 days after inoculation. The protocol:
as §1, with “of Pyrenophora teres.” for “of Puccinia recondita.”, “of 80%.” for “of 80% to promote the development of rust pustules.”, “out 8” for “out 10”

In turn, `CCn1cc(C(=O)Nc2ccc(F)cc2-c2ccc(Cl)c(F)c2)c(C(F)F)n1` [drawing 20] registered an Efficacy in % in the data set on Alternaria solani of 95%.
Take `CCn1cc(C(=O)Nc2ccc(F)cc2-c2ccc(Cl)c(Cl)c2)c(C(F)F)n1` [drawing 16]: in the data set with Puccinia recondita, the Efficacy in % amounted to 95%.
`Cn1nc(C(C)(C)C)c(C(=O)Nc2ccc(F)cc2-c2ccc(Cl)c(Cl)c2)c1Cl` [drawing 18] registered an Efficacy in % in the data set on Botrytis cinerea of 70%.
On to `CCn1cc(C(=O)Nc2ccc(F)cc2-c2ccc(Cl)c(Cl)c2)c(C(F)F)n1` [Example 1, N-(3′,4′-dichloro-5-fluorobiphenyl-2-yl)-3-(difluoromethyl)-1-ethyl-1H-pyrazole-4-carboxamide], for which the chromatographic logP in data set [1] is 3.61.
Consider `Cn1nc(C(C)(C)C)c(C(=O)Nc2ccc(F)cc2-c2ccc(Cl)c(Cl)c2)c1Cl` [Example 5], for which the chromatographic logP in data set [1] came to 4.53.
Consider `CCn1cc(C(=O)Nc2ccc(F)cc2-c2ccc(Cl)c(Cl)c2)c(C(F)F)n1` [drawing 19], for which, in the data set on Alternaria solani, the Efficacy in % worked out at 95%.
Consider `CCn1cc(C(=O)Nc2ccc(F)cc2-c2ccc(Cl)c(F)c2)c(C(F)F)n1` [Example 2, N-(4′-chloro-3′,5-difluorobiphenyl-2-yl)-3-(difluoromethyl)-1-ethyl-1H-pyrazole-4-carboxamide], for which the chromatographic logP in data set [1] is 3.34.
Regarding `CCn1cc(C(=O)Nc2ccc(F)cc2-c2ccc(Cl)c(Cl)c2)c(C(F)F)n1` [drawing 17], the Efficacy in % with Pyrenophora teres stood at 100%.

Broadly, the chromatographic logP is lipophilicity estimated from chromatographic retention. A high value points to higher lipophilicity.

The values are drawn from patent US20090069398A1, “Pyrazolyl Carboxamides” (Bayer CropScience AG, priority 2005, published 2009).
